pIC50: −log10 of the molar value.
Test system: LG0703-F948-PDC complex spheroid viability
Test: Anticancer human tumor LG0703-F948-PDC patient-derived lung adenocarcinoma cell line growth inhibition [RAS]
Details: for pIC50: curve of first compound; for viability, T/C: stronger effect = lower value
How it was run: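 Multi-cell-type spheroids: tumor cells plus HUVEC endothelial cells and mesenchymal stem cells. RAS-pathway inhibitors were combined with targeted agents, each dosed in half-log steps down from clinical Cmax, or from 10 microM when Cmax was unknown.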

[1] = second compound 0.000949 µM, first compound 0.0316 µM
[2] = second compound 0.000949 µM, first compound 0.1 µM
[3] = second compound 0.000949 µM, first compound 0.316 µM
[4] = second compound 0.000949 µM, first compound 1 µM
[5] = second compound 0.000949 µM, first compound 3.16 µM
[6] = second compound 0.000949 µM, first compound 10 µM
[7] = second compound 0.003 µM, first compound 0.0316 µM
[8] = second compound 0.003 µM, first compound 0.1 µM
[9] = second compound 0.003 µM, first compound 0.316 µM
[10] = second compound 0.003 µM, first compound 1 µM
[11] = second compound 0.003 µM, first compound 3.16 µM
[12] = second compound 0.003 µM, first compound 10 µM
[13] = second compound 0.00949 µM, first compound 0.0316 µM
[14] = second compound 0.00949 µM, first compound 0.1 µM
[15] = second compound 0.00949 µM, first compound 0.316 µM
[16] = second compound 0.00949 µM, first compound 1 µM
[17] = second compound 0.00949 µM, first compound 3.16 µM
[18] = second compound 0.00949 µM, first compound 10 µM
[19] = second compound 0.03 µM, first compound 0.0316 µM
[20] = second compound 0.03 µM, first compound 0.1 µM
[21] = second compound 0.03 µM, first compound 0.316 µM
[22] = second compound 0.03 µM, first compound 1 µM
[23] = second compound 0.03 µM, first compound 3.16 µM
[24] = second compound 0.03 µM, first compound 10 µM
[25] = second compound 0.0949 µM, first compound 0.0316 µM
[26] = second compound 0.0949 µM, first compound 0.1 µM
[27] = second compound 0.0949 µM, first compound 0.316 µM
[28] = second compound 0.0949 µM, first compound 1 µM
[29] = second compound 0.0949 µM, first compound 3.16 µM
[30] = second compound 0.0949 µM, first compound 10 µM
[31] = second compound 0.3 µM, first compound 0.0316 µM
[32] = second compound 0.3 µM, first compound 0.1 µM
[33] = second compound 0.3 µM, first compound 0.316 µM
[34] = second compound 0.3 µM, first compound 1 µM
[35] = second compound 0.3 µM, first compound 3.16 µM
[36] = second compound 0.3 µM, first compound 10 µM
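Further: spheroids exposed to agents for 7 days.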
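Wherever viability, T/C is given: 100% = DMSO vehicle wells.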

`Cc1nc(N2CCC3(CC2)COC(C)C3N)c(CO)nc1Sc1ccnc(N)c1Cl` (stereo unspecified) + CCn1c(-c2cccnc2C(C)OC)c2c3cc(ccc31)N1CCOC(CC(NC(=O)C(C(C)C)N(C)C(=O)C3(F)CCN(C(=O)C#CC(C)(C)N(C)C)CC3)C(=O)N3CCCC(N3)C(=O)OCC(C)(C)C2)C1 showed a pIC50 (second compound 0.000949 µM) of 6.26, a pIC50 (second compound 0.003 µM) of 6.47 and a pIC50 (second compound 0.00949 µM) of 6.40. The pIC50 (second compound 0.03 µM) was 6.41, the pIC50 (second compound 0.0949 µM) was 6.85 and the pIC50 (second compound 0.3 µM) was over 7.50. It also gave a viability, T/C [1] of 100%, a viability, T/C [2] of 68.4% and a viability, T/C [3] of 61.6%. It also gave a viability, T/C [4] of 43.1%, a viability, T/C [5] of 24.8% and a viability, T/C [6] of 13%. For the same compound, the viability, T/C [7] was 87.8%, the viability, T/C [8] was 76% and the viability, T/C [9] was 47.8%. For the same compound, the viability, T/C [10] was 31.7%, the viability, T/C [11] was 24.4% and the viability, T/C [12] was 11.9%. For the same compound, the viability, T/C [13] was 93.1%, the viability, T/C [14] was 74.8% and the viability, T/C [15] was 52.7%. It also gave a viability, T/C [16] of 36.9%, a viability, T/C [17] of 21.5% and a viability, T/C [18] of 13.6%. It also gave a viability, T/C [19] of 70.2%, a viability, T/C [20] of 58.6% and a viability, T/C [21] of 52.1%. It also gave a viability, T/C [22] of 42.4%, a viability, T/C [23] of 16.9% and a viability, T/C [24] of 12.7%. The viability, T/C [25] was 73.2%, the viability, T/C [26] was 56.8% and the viability, T/C [27] was 35.2%. For the same compound, the viability, T/C [28] was 23.2%, the viability, T/C [29] was 13.5% and the viability, T/C [30] was 5.55%. The viability, T/C [31] was 34.1%, the viability, T/C [32] was 26.7% and the viability, T/C [33] was 22.8%. The viability, T/C [34] was 14.3%, the viability, T/C [35] was 6.25% and the viability, T/C [36] was 3.6%.

In the case of `NC1c2ccccc2OC12CCN(c1cnc3c(N4CCCc5ncccc54)n[nH]c3n1)CC2` (stereo unspecified) + CCn1c(-c2cc(N3CCN(C)CC3)cnc2C(C)OC)c2c3cc(ccc31)-c1csc(n1)CC(NC(=O)C1CC1C)C(=O)N1CCCC(N1)C(=O)OCC(C)(C)C2, the pIC50 (second compound 0.000949 µM) was over 7.50, the pIC50 (second compound 0.003 µM) was over 7.50 and the pIC50 (second compound 0.00949 µM) was over 7.50. For the same compound, the pIC50 (second compound 0.03 µM) was over 7.50, the pIC50 (second compound 0.0949 µM) was over 7.50 and the pIC50 (second compound 0.3 µM) was over 7.50. The viability, T/C [1] was 30.3%, the viability, T/C [2] was 19.3% and the viability, T/C [3] was 11%. The viability, T/C [4] was 8.58%, the viability, T/C [5] was 5.25% and the viability, T/C [6] was 1.78%. For the same compound, the viability, T/C [7] was 20.3%, the viability, T/C [8] was 11.8% and the viability, T/C [9] was 9.37%. For the same compound, the viability, T/C [10] was 8.15%, the viability, T/C [11] was 3.56% and the viability, T/C [12] was 1.82%. It also gave a viability, T/C [13] of 14.5%, a viability, T/C [14] of 7.88% and a viability, T/C [15] of 5.28%. It also gave a viability, T/C [16] of 4.34%, a viability, T/C [17] of 2.68% and a viability, T/C [18] of 2.25%. It also gave a viability, T/C [19] of 8.5%, a viability, T/C [20] of 6.42% and a viability, T/C [21] of 4.71%. It also gave a viability, T/C [22] of 2.66%, a viability, T/C [23] of 2.29% and a viability, T/C [24] of 2.1%. The viability, T/C [25] was 6.81%, the viability, T/C [26] was 4.57% and the viability, T/C [27] was 4.01%. The viability, T/C [28] was 2.85%, the viability, T/C [29] was 3.37% and the viability, T/C [30] was 1.78%. It also gave a viability, T/C [31] of 3.46%, a viability, T/C [32] of 4.3% and a viability, T/C [33] of 3.62%. For the same compound, the viability, T/C [34] was 2.74%, the viability, T/C [35] was 1.58% and the viability, T/C [36] was 1.7%.

`CCc1c2c(nc3ccc(O)cc13)-c1cc3c(c(=O)n1C2)COC(=O)[C@]3(O)CC` + CCn1c(-c2cc(N3CCN(C)CC3)cnc2C(C)OC)c2c3cc(ccc31)-c1csc(n1)CC(NC(=O)C1CC1C)C(=O)N1CCCC(N1)C(=O)OCC(C)(C)C2 showed a pIC50 (second compound 0.000949 µM) of 7.17, a pIC50 (second compound 0.003 µM) of over 9.02 and a pIC50 (second compound 0.00949 µM) of over 9.02. It also gave a pIC50 (second compound 0.03 µM) of over 9.02, a pIC50 (second compound 0.0949 µM) of over 9.02 and a pIC50 (second compound 0.3 µM) of over 9.02. For the same compound, the viability, T/C (second compound 0.000949 µM, first compound 0.000949 µM) was 74.3%, the viability, T/C (second compound 0.000949 µM, first compound 0.003 µM) was 84.5% and the viability, T/C (second compound 0.000949 µM, first compound 0.00949 µM) was 54.4%. For the same compound, the viability, T/C (second compound 0.000949 µM, first compound 0.03 µM) was 62%, the viability, T/C (second compound 0.000949 µM, first compound 0.0949 µM) was 49.7% and the viability, T/C (second compound 0.000949 µM, first compound 0.3 µM) was 24.4%. For the same compound, the viability, T/C (second compound 0.003 µM, first compound 0.000949 µM) was 46.3%, the viability, T/C (second compound 0.003 µM, first compound 0.003 µM) was 44.4% and the viability, T/C (second compound 0.003 µM, first compound 0.00949 µM) was 46%. For the same compound, the viability, T/C (second compound 0.003 µM, first compound 0.03 µM) was 40.1%, the viability, T/C (second compound 0.003 µM, first compound 0.0949 µM) was 31.9% and the viability, T/C (second compound 0.003 µM, first compound 0.3 µM) was 20%. For the same compound, the viability, T/C (second compound 0.00949 µM, first compound 0.000949 µM) was 25.6%, the viability, T/C (second compound 0.00949 µM, first compound 0.003 µM) was 19% and the viability, T/C (second compound 0.00949 µM, first compound 0.00949 µM) was 19.7%. For the same compound, the viability, T/C (second compound 0.00949 µM, first compound 0.03 µM) was 17%, the viability, T/C (second compound 0.00949 µM, first compound 0.0949 µM) was 17.2% and the viability, T/C (second compound 0.00949 µM, first compound 0.3 µM) was 11.3%. It also gave a viability, T/C (second compound 0.03 µM, first compound 0.000949 µM) of 13.3%, a viability, T/C (second compound 0.03 µM, first compound 0.003 µM) of 17.8% and a viability, T/C (second compound 0.03 µM, first compound 0.00949 µM) of 13.5%. The viability, T/C (second compound 0.03 µM, first compound 0.03 µM) was 15.7%, the viability, T/C (second compound 0.03 µM, first compound 0.0949 µM) was 10.4% and the viability, T/C (second compound 0.03 µM, first compound 0.3 µM) was 9.39%. For the same compound, the viability, T/C (second compound 0.0949 µM, first compound 0.000949 µM) was 14.1%, the viability, T/C (second compound 0.0949 µM, first compound 0.003 µM) was 12.5% and the viability, T/C (second compound 0.0949 µM, first compound 0.00949 µM) was 9.68%. It also gave a viability, T/C (second compound 0.0949 µM, first compound 0.03 µM) of 9.08%, a viability, T/C (second compound 0.0949 µM, first compound 0.0949 µM) of 12.3% and a viability, T/C (second compound 0.0949 µM, first compound 0.3 µM) of 9.68%. For the same compound, the viability, T/C (second compound 0.3 µM, first compound 0.000949 µM) was 11.7%, the viability, T/C (second compound 0.3 µM, first compound 0.003 µM) was 9.88% and the viability, T/C (second compound 0.3 µM, first compound 0.00949 µM) was 8.36%. It also gave a viability, T/C (second compound 0.3 µM, first compound 0.03 µM) of 8.45%, a viability, T/C (second compound 0.3 µM, first compound 0.0949 µM) of 7.32% and a viability, T/C (second compound 0.3 µM, first compound 0.3 µM) of 4.88%.
